# Values joined by “and” are separate entries in the source; they are usually repeats but may differ in a detail not shown here. Identical values can stand only once.
# Test system: 354836-022-R-J1-PDC multicell spheroid viability
# Assay: Anticancer human tumor 354836-022-R-J1-PDC patient-derived head and neck squamous cell carcinoma cell line growth inhibition [PI3K]
# Details: for viability, T/C: stronger effect = lower value
# Excerpt: Combinatorial screen of targeted agents with the PI3K inhibitors inavolisib, alpelisib, duvelisib, and copanlisib in multi-cell type tumor spheroids
# A high-throughput screen of multi-cell type tumor spheroids was designed to identify active combinations of targeted small molecules and PI3K pathway inhibitors. Complex spheroids include a stromal component modeled by human endothelial cells (HUVEC) and fibroblasts modeled by human mesenchymal stem cells (MSCs). The concentration ranges selected for each drug and investigational agent were based upon clinically achievable concentrations if the clinical Cmax of the agent was known.
# Compounds. The drugs and investigational agents: inavolisib (NSC800729), alpelisib (NSC765974), duvelisib (NSC772469), copanlisib (NSC816437), ipatasertib (NSC767898), afuresertib (NSC778305), talazoparib (NSC767125), sapanisertib (NSC764658), selumetinib (NSC741078), tovorafenib (DAY101, NSC766906), vemurafenib (NSC761431), ravoxertinib (NSC781343), sotorasib (NSC818433), MRTX1133 (NSC 836407), abemaciclib (NSC 768073), palbociclib (NSC758247), venetoclax (NSC 766270), SY5609 (NSC837396), enzalutamide (NSC755605), and darolutamide (NSC825331), were obtained from the National Cancer Institute (NCI) Developmental Therapeutics Program Chemical Repository. The FDA-approved anticancer drug set is available from the NCI Developmental Therapeutics Program. […] The stock solutions were prepared in dimethyl sulfoxide (DMSO, Sigma-Aldrich, St. Louis, MO, cat. D2650) at 800-fold the tested concentration and stored at -70 degrees C prior to their use. All drugs and investigational agents were tested over a range starting from a high concentration at or near the clinical Cmax and decreasing in half-log increments. If the clinical Cmax for an agent had not been determined, the highest concentration tested was 10 microM.
# Cell Culture. All cells were maintained in an incubator at 37 degrees C and 5% CO2 with 95% humidity. The PDC lines were cultured according to standard operating procedures established by the NCI PDMR (https://pdmr.cancer.gov/sops/default.htm). All PDCs were thawed and cultured in Matrigel-coated flasks prepared with a working solution of 1X Ham's F-12 nutrient mix, without supplementation (Invitrogen, Waltham, MA, cat. 11765054), 100 U/mL penicillin-streptomycin (Invitrogen, cat. 15140122), and 2.5% Matrigel (Corning Inc., Corning, NY, cat. 354248) for the first three passages. The 354836-022-R-J1-PDC, 475296-252-R-J1-PDC, and 997726-040-R-J2-PDC lines were cultured in 6A media, which includes advanced DMEM/F-12 (Thermo Fisher Scientific, cat. 12634028), 10 mM HEPES (Thermo Fisher Scientific, cat. 15630080), 1X GlutaMAX supplement (Thermo Fisher Scientific, cat. 35050061), 0.1 mg/mL primocin (InvivoGen, San Diego, CA, cat. ant-pm-2), 10% defined fetal bovine serum, heat inactivated (HyClone Laboratories Inc., Logan, UT, cat. SH30070.03HI), 50% L-WRN conditioned media (ATCC, cat. CRL-3276), 1.25 mM N-Acetyl-L-cysteine (Sigma-Aldrich, cat. A9165), 10 mM nicotinamide (Sigma-Aldrich, cat. N0636), 1X B-27 supplement (Thermo Fisher Scientific, cat. 17504044), 1X N-2 supplement (Thermo Fisher Scientific, cat. 17502048), and 10 microM Y-27632 dihydrochloride (Tocris Bioscience, Bristol, United Kingdom, cat. 1254). The 624824-186-R-J2-PDC line was cultured in 6C/Colon 1B media, which includes all 6A media components plus 50 ng/mL human EGF recombinant protein (Thermo Fisher Scientific, cat. PHG0311). […]
# [1] = curve of first compound, second compound 0.00316 µM
# [2] = curve of first compound, second compound 0.01 µM
# [3] = curve of first compound, second compound 0.0316 µM
# [4] = curve of first compound, second compound 0.1 µM
# [5] = curve of first compound, second compound 0.316 µM
# [6] = curve of first compound, second compound 1 µM
# 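Note: spheroids exposed to agents for seven days before the viability read.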
smiles,measurement,setting,value
Cn1cnc2c(F)c(Nc3ccc(Br)cc3Cl)c(C(=O)NOCCO)cc21 + CC(Nc1ccc2c(c1)OCCn1cc(N3C(=O)OCC3C(F)F)nc1-2)C(N)=O,IC50,[1],> 3000 nM
same,IC50,[2],> 3000 nM
same,IC50,[3],> 3000 nM
same,IC50,[4],> 3000 nM
same,IC50,[5],2270 nM
same,IC50,[6],252 nM
same,"viability, T/C","second compound 0.00316 µM, first compound 0.00949 µM",98%
same,"viability, T/C","second compound 0.00316 µM, first compound 0.03 µM",75.2%
same,"viability, T/C","second compound 0.00316 µM, first compound 0.0949 µM",92.6%
same,"viability, T/C","second compound 0.00316 µM, first compound 0.3 µM",78%
same,"viability, T/C","second compound 0.00316 µM, first compound 0.949 µM",79.2%
same,"viability, T/C","second compound 0.00316 µM, first compound 3 µM",54.9%
same,"viability, T/C","second compound 0.01 µM, first compound 0.00949 µM",93.2%
same,"viability, T/C","second compound 0.01 µM, first compound 0.03 µM",78.7%
same,"viability, T/C","second compound 0.01 µM, first compound 0.0949 µM",87%
same,"viability, T/C","second compound 0.01 µM, first compound 0.3 µM",78.7%
same,"viability, T/C","second compound 0.01 µM, first compound 0.949 µM",75.6%
same,"viability, T/C","second compound 0.01 µM, first compound 3 µM",56%
same,"viability, T/C","second compound 0.0316 µM, first compound 0.00949 µM",90%
same,"viability, T/C","second compound 0.0316 µM, first compound 0.03 µM",97.1%
same,"viability, T/C","second compound 0.0316 µM, first compound 0.0949 µM",96%
same,"viability, T/C","second compound 0.0316 µM, first compound 0.3 µM",83.5%
same,"viability, T/C","second compound 0.0316 µM, first compound 0.949 µM",83.7%
same,"viability, T/C","second compound 0.0316 µM, first compound 3 µM",65.1%
same,"viability, T/C","second compound 0.1 µM, first compound 0.00949 µM",88.4%
same,"viability, T/C","second compound 0.1 µM, first compound 0.03 µM",87.3%
same,"viability, T/C","second compound 0.1 µM, first compound 0.0949 µM",84.2%
same,"viability, T/C","second compound 0.1 µM, first compound 0.3 µM",80.5%
same,"viability, T/C","second compound 0.1 µM, first compound 0.949 µM",81.6%
same,"viability, T/C","second compound 0.1 µM, first compound 3 µM",55.9%
same,"viability, T/C","second compound 0.316 µM, first compound 0.00949 µM",80.9%
same,"viability, T/C","second compound 0.316 µM, first compound 0.03 µM",81%
same,"viability, T/C","second compound 0.316 µM, first compound 0.0949 µM",67.1%
same,"viability, T/C","second compound 0.316 µM, first compound 0.3 µM",68%
same,"viability, T/C","second compound 0.316 µM, first compound 0.949 µM",63.4%
same,"viability, T/C","second compound 0.316 µM, first compound 3 µM",45.4%
same,"viability, T/C","second compound 1 µM, first compound 0.00949 µM",72.2%
same,"viability, T/C","second compound 1 µM, first compound 0.03 µM",57.1%
same,"viability, T/C","second compound 1 µM, first compound 0.0949 µM",55.4%
same,"viability, T/C","second compound 1 µM, first compound 0.3 µM",52.8%
same,"viability, T/C","second compound 1 µM, first compound 0.949 µM",40.8%
same,"viability, T/C","second compound 1 µM, first compound 3 µM",24.7%
CC(=O)c1c(C)c2cnc(Nc3ccc(N4CCNCC4)cn3)nc2n(C2CCCC2)c1=O + CC(Nc1ccc2c(c1)OCCn1cc(N3C(=O)OCC3C(F)F)nc1-2)C(N)=O,IC50,[1],> 100 nM
same,IC50,[2],> 100 nM
same,IC50,[3],> 100 nM
same,IC50,[4],> 100 nM
same,IC50,[5],> 100 nM
same,IC50,[6],> 100 nM
same,"viability, T/C","second compound 0.00316 µM, first compound 0.000316 µM",95.6%
same,"viability, T/C","second compound 0.00316 µM, first compound 0.001 µM",98%
same,"viability, T/C","second compound 0.00316 µM, first compound 0.00316 µM",109%
same,"viability, T/C","second compound 0.00316 µM, first compound 0.01 µM",82.5%
same,"viability, T/C","second compound 0.00316 µM, first compound 0.0316 µM",102%
same,"viability, T/C","second compound 0.00316 µM, first compound 0.1 µM",98.7%
same,"viability, T/C","second compound 0.01 µM, first compound 0.000316 µM",99%
same,"viability, T/C","second compound 0.01 µM, first compound 0.001 µM",94.3%
same,"viability, T/C","second compound 0.01 µM, first compound 0.00316 µM",102%
same,"viability, T/C","second compound 0.01 µM, first compound 0.01 µM",90%
same,"viability, T/C","second compound 0.01 µM, first compound 0.0316 µM",94.8%
same,"viability, T/C","second compound 0.01 µM, first compound 0.1 µM",105%
same,"viability, T/C","second compound 0.0316 µM, first compound 0.000316 µM",85.2%
same,"viability, T/C","second compound 0.0316 µM, first compound 0.001 µM",109%
same,"viability, T/C","second compound 0.0316 µM, first compound 0.00316 µM",92.2%
same,"viability, T/C","second compound 0.0316 µM, first compound 0.01 µM",97.8%
same,"viability, T/C","second compound 0.0316 µM, first compound 0.0316 µM",98.4%
same,"viability, T/C","second compound 0.0316 µM, first compound 0.1 µM",101%
same,"viability, T/C","second compound 0.1 µM, first compound 0.000316 µM",80.7%
same,"viability, T/C","second compound 0.1 µM, first compound 0.001 µM",84.2%
same,"viability, T/C","second compound 0.1 µM, first compound 0.00316 µM",87%
same,"viability, T/C","second compound 0.1 µM, first compound 0.01 µM",93%
same,"viability, T/C","second compound 0.1 µM, first compound 0.0316 µM",96.8%
same,"viability, T/C","second compound 0.1 µM, first compound 0.1 µM",80.3%
same,"viability, T/C","second compound 0.316 µM, first compound 0.000316 µM",65.8%
same,"viability, T/C","second compound 0.316 µM, first compound 0.001 µM",78.9%
same,"viability, T/C","second compound 0.316 µM, first compound 0.00316 µM",70.8%
same,"viability, T/C","second compound 0.316 µM, first compound 0.01 µM",68%
same,"viability, T/C","second compound 0.316 µM, first compound 0.0316 µM",70.7%
same,"viability, T/C","second compound 0.316 µM, first compound 0.1 µM",72.4%
same,"viability, T/C","second compound 1 µM, first compound 0.000316 µM",65.5%
same,"viability, T/C","second compound 1 µM, first compound 0.001 µM",60%
same,"viability, T/C","second compound 1 µM, first compound 0.00316 µM",54.4%
same,"viability, T/C","second compound 1 µM, first compound 0.01 µM",65.7%
same,"viability, T/C","second compound 1 µM, first compound 0.0316 µM",62.7%
same,"viability, T/C","second compound 1 µM, first compound 0.1 µM",63.6%
CC(=O)c1c(C)c2cnc(Nc3ccc(N4CCNCC4)cn3)nc2n(C2CCCC2)c1=O,"viability, T/C",compound 0.000316 µM,105% (2×) and 101% and 106%
same,"viability, T/C",compound 0.001 µM,104% [middle of 4 runs]
same,"viability, T/C",compound 0.00316 µM,105% [middle of 4 runs]
same,"viability, T/C",compound 0.01 µM,102% [middle of 4 runs]
same,"viability, T/C",compound 0.0316 µM,103% [middle of 4 runs]
same,"viability, T/C",compound 0.1 µM,104% [middle of 4 runs]
same,IC50,curve of compound,> 100 nM

# — PubChem BioAssay AID1963981 (Molecular Pharmacology Branch, DTP, NCI, 2024)
